Here are results for two compounds from patent publication US6869912B2, “Biocidal composition” (priority 2000, dated 2005).

The subject of one data set is plants and animals. The conditions noted are these: cited from earlier work.
Data set [1] in a line: Particle size analysis using a Hiac/Royco 8000A Laser Extinction Counter. Format: physicochemical. The conditions noted are these: particles formed in Example 1. The source says:
Particle size analysis, using a Hiac/Royco […] Laser Extinction Counter of a typical batch of the biocidal preparation gave;

The nature of data set [2]: Settling of copper (II) oxalate particles through water in a measuring cylinder. The class given is physicochemical. The conditions noted are these: majority of particles, distributed on the surface of a measuring cylinder. The procedure:
A portion of a biocidal composition prepared as described above was distributed on the surface of a measuring cylinder. […] After standing for approximately four hours, samples were taken by pipette from various portions of the water body. The concentration of copper (II) ions in the water body was measured, by way of atomic absorption spectrophotometry, at between 5 and 8 parts per million.

Regarding `[Cu+2]` [copper (II) ions], the “Concentration not toxic to almost all plants and animals” value in the data set with plants and animals (over extended periods of time) is recorded as “up to 2 parts per million”. Also, the “Level tolerated by most plants and animals” value in the data set with plants and animals (over relatively short periods of time) was 10 parts per million.
As for `O=C([O-])C(=O)[O-].[Cu+2]` [copper (II) oxalate], the Predominant particle size result in data set [1] is on record as “below 10 μm”. Also, the “Settling rate of particles” value in data set [2] is given as 2-5 metres per hour.
